Source: patent US20210060166A1, “Method for the preparation of a 1,7-bis (4-hydroxy-3-methoxyphenyl)-1,6-heptadiene-3,5-dione system in polysorbates for the formation of micelles in an aqueous medium aimed at the properties of the bioavailability of curcuminoids” (priority 2019, published 2021)

Columns and labels:
Format in all cases: physicochemical
[1] = integration of curcumin into aqueous phase with polysorbates (UV/VIS 424 nm); conditions: 25° C.
Description: Three concentrations of polysorbate of different value of HLB were evaluated in a 1:1 ratio for each mixture; With this combination of surfactants, 3 aqueous systems were prepared at concentrations of 0.0052%, 0.04% and 0.113% (% weight/weight). The first corresponds to a concentration below the individual Critical Micellar Concentration (CMC) of each surfactant 2.8529 mg/L, the second corresponds to a concentration slightly above the CMC 6.8439 mg/L and the third corresponds to a concentration well above the CMC, respectively 21.222 mg/L (FIG. 1). […] After 30 minutes of stirring at 500 RPM at 25° C., the suspensions were allowed to stand for 30 minutes and a sample from the supernatant was taken for UV/VIS spectrophotometric evaluation at 424 nm, using the 3 mentioned concentrations as blank.
The ability to form a micellar system of 1,7-bis (4-hydroxy-3-methoxyphenyl)-1,6-heptadien-3,5-dione at different percentages of polysorbates was evaluated.

[2] = suspension capacity of polysorbates for curcumin by gravimetry; conditions: Tween 80-Tween 20 (1:1)
Description: The suspension capacity of the polysorbates for 1,7-bis (4-hydroxy-3-methoxyphenyl)-1,6-heptadien-3,5-dione was evaluated by gravimetry according to P[…] THE UNITED MEXICAN STATES (FEUM), volume 1, eleventh edition.
Stating that at ratios of <100 of Tween 20 or 80, the capacity is not sufficient to suspend the required analyte dose. However, after 160 mg/mL (1:1) the presence of precipitate was found. In FIG. 2, different concentrations of polysorbate (Tween 80-Tween 20 (1:1) are specified in which, when mixed with analyte results in absence or presence of analyte precipitate (FIG. 3).

[3] = dialysis release of curcumin through cellulose membrane
Text: Spectrum™ Spectra/Por™ 4 RC Dialysis Membrane Tubing 12,000 to 14,000 Dalton MWCO, cellulose, was used. The release conditions were pH 6.8, Polysorbate 1, 8%, Polysorbate 2, 4%. The pH 6.8 was used as Kiyohiko Sugano, Hirokazu Hamada, Minoru Machida, Hidetoshi Ushio, Kimitoshi Saitoh, Katsuhide Terada. Optimized conditions of bio-mimetic artificial membrane permeation assay. International Journal of Pharmaceutics Volume 228, Issues 1-2, 9 Oct. 2001, Pages 181-188 to simulate the conditions of the intestine, where the absorption of the compound is carried out. Concentrations of 8 and 4 percent of the polysorbates were used to ensure that the solution is above the CMC and the ability to form micelles is not lost, since the analytical method requires that an amount of release medium gets removed and replenish with simple medium (FEUM, volume 1, eleventh edition.).

Compound: COc1cc(C=CC(=O)CC(=O)C=Cc2ccc(O)c(OC)c2)ccc1O [curcumin, 1,7-bis (4-hydroxy-3-methoxyphenyl)-1,6-heptadien-3,5-dione]
- curcumin concentration in solution ([1]; polysorbates 0.0052% w/w (below CMC)): 2.8529 mg/L
- curcumin concentration in solution ([1]; polysorbates 0.04% w/w (slightly above CMC)): 6.8439 mg/L
- curcumin concentration in solution ([1]; polysorbates 0.113% w/w (well above CMC)): 21.222 mg/L
- concentration after which presence of precipitate was found [2]: > 160000 µg/mL
- concentration released over time ([3]; absence of polysorbates in the medium): does not show any increase in concentration over time
- concentration released over time ([3]; pH 6.8, Polysorbate 1 8%, Polysorbate 2 4%, 0.25 h to 20 h): increases with time
